Data reported in ChEMBL document CHEMBL4342527, “Discovery of Novel Fungal Lanosterol 14α-Demethylase (CYP51)/Histone Deacetylase Dual Inhibitors to Treat Azole-Resistant Candidiasis” (J Med Chem, 2020).
Values after ≈ are worked out from the molar mass of the structure shown.

What was measured:
[1] = system: Candida albicans; assay: Antifungal activity against azole-sensitive Candida albicans SC5314 after 48 hrs by spectrophotometry-based serial microdilution method; type: functional
[2] = system: Candida albicans; assay: Antifungal activity against azole-resistant Candida albicans 0304103 after 48 hrs by spectrophotometry-based serial microdilution method; type: functional; settings: Candida albicans, 0304103, 48 h
[3] = system: Candida albicans; assay: Antifungal activity against azole-resistant Candida albicans 7781 after 48 hrs by spectrophotometry-based serial microdilution method; type: functional; settings: Candida albicans, 7781, 48 h
[4] = system: Candida albicans; assay: Antifungal activity against azole-resistant Candida albicans 4108 after 48 hrs by spectrophotometry-based serial microdilution method; type: functional; settings: Candida albicans, 4108, 48 h
[5] = system: Candida tropicalis; assay: Antifungal activity against azole-resistant Candida tropicalis 5008 after 48 hrs by spectrophotometry-based serial microdilution method; type: functional; settings: Candida tropicalis, 5008, 48 h
[6] = system: Cryptococcus neoformans; assay: Antifungal activity against azole-sensitive Cryptococcus neoformans H99 after 72 hrs by spectrophotometry-based serial microdilution method; type: functional, var grubii H99
[7] = Candida albicans, SC5314, 48 h, read-out: MIC80
[8] = Cryptococcus neoformans, var grubii H99 , 72 h, read-out: MIC80

Row | SMILES | MIC80 [1, 7] [µg/mL] | MIC80 [2] [µg/mL] | MIC80 [3] [µg/mL] | MIC80 [4] [µg/mL] | MIC80 [5] [µg/mL] | MIC80 [6, 8] [µg/mL] | MIC80 [1] [µg/mL] | MIC80 [6] [µg/mL]
1 | CN(Cc1ccc(-n2cnn(CCCCCCCC(=O)NO)c2=O)cc1)CC(O)(Cn1cncn1)c1ccc(F)cc1F (racemic) | 16 (≈ 26.7 µM) | 8 (≈ 13.4 µM) | 8 (≈ 13.4 µM) | 64 (≈ 107 µM) | 8 (≈ 13.4 µM) | 2 (≈ 3.34 µM) |  | 
2 | CN(Cc1ccc(-n2cnn(CCCCCC(=O)NO)c2=O)cc1)CC(O)(Cn1cncn1)c1ccc(F)cc1F (racemic) | 32 (≈ 56.1 µM) | 16 (≈ 28 µM) | 32 (≈ 56.1 µM) | 64 (≈ 112 µM) | 64 (≈ 112 µM) | 8 (≈ 14 µM) |  | 
3 | CN(Cc1ccc(-n2cnn(CCCCC(=O)NO)c2=O)cc1)CC(O)(Cn1cncn1)c1ccc(F)cc1F (racemic) | 32 (≈ 57.5 µM) | 64 (≈ 115 µM) | > 64 | > 64 | > 64 | 64 (≈ 115 µM) |  | 
4 | CN(Cc1ccc(-n2cnn(CCCOc3ccc(CC(=O)NO)cc3)c2=O)cc1)CC(O)(Cn1cncn1)c1ccc(F)cc1F (racemic) | 64 (≈ 98.7 µM) | 32 (≈ 49.3 µM) | 4 (≈ 6.17 µM) | 32 (≈ 49.3 µM) | 4 (≈ 6.17 µM) | 8 (≈ 12.3 µM) |  | 
5 | CN(Cc1ccc(OCCCCCCCC(=O)NO)cc1)CC(O)(Cn1cncn1)c1ccc(F)cc1F (racemic) | 0.25 (≈ 0.47 µM) | 0.5 (≈ 0.941 µM) | 0.5 (≈ 0.941 µM) | 0.5 (≈ 0.941 µM) | 1 (≈ 1.88 µM) | 0.5 (≈ 0.941 µM) |  | 
6 | CN(Cc1cccc(OCCCOc2ccc(C(=O)NO)cc2)c1)CC(O)(Cn1cncn1)c1ccc(F)cc1F (racemic) | 1 (≈ 1.76 µM) | 2 (≈ 3.52 µM) | 4 (≈ 7.05 µM) | 2 (≈ 3.52 µM) | 4 (≈ 7.05 µM) | 0.125 (≈ 0.22 µM) |  | 
7 | CN(Cc1ccc(-n2cnn(CCCCCCCCC(=O)NO)c2=O)cc1)CC(O)(Cn1cncn1)c1ccc(F)cc1F (racemic) | 2 (≈ 3.26 µM) | 4 (≈ 6.53 µM) | 4 (≈ 6.53 µM) | 32 (≈ 52.2 µM) | 8 (≈ 13.1 µM) | 4 (≈ 6.53 µM) |  | 
8 | CN(Cc1ccc(-n2cnn(CCCc3ccc(C(=O)NO)cc3)c2=O)cc1)CC(O)(Cn1cncn1)c1ccc(F)cc1F (racemic) | 32 (≈ 51.7 µM) | 4 (≈ 6.47 µM) | 2 (≈ 3.23 µM) | 32 (≈ 51.7 µM) | 8 (≈ 12.9 µM) | 2 (≈ 3.23 µM) |  | 
9 | CN(Cc1ccc(CCCC(=O)Nc2ccc(CC(=O)NO)cc2)cc1)CC(O)(Cn1cncn1)c1ccc(F)cc1F (racemic) | 1 (≈ 1.69 µM) | 1 (≈ 1.69 µM) | 1 (≈ 1.69 µM) | 1 (≈ 1.69 µM) | 32 (≈ 54 µM) | 1 (≈ 1.69 µM) |  | 
10 | O=C(NO)c1ccc(OCCCc2ncnn2CC(O)(Cn2cncn2)c2ccc(F)cc2F)cc1 (racemic) | 64 (≈ 128 µM) | 32 (≈ 64.1 µM) | 8 (≈ 16 µM) | 64 (≈ 128 µM) | > 64 | 64 (≈ 128 µM) |  | 
11 | O=C(NO)c1ccc(OCCCCc2ncn(CC(O)(Cn3cncn3)c3ccc(F)cc3F)n2)cc1 (racemic) | 4 (≈ 7.79 µM) | > 64 | 64 (≈ 125 µM) | > 64 | > 64 | 64 (≈ 125 µM) |  | 
12 | CN(Cc1ccc(CCCCOc2ccc(CC(=O)NO)cc2)cc1)CC(O)(Cn1cncn1)c1ccc(F)cc1F (racemic) | 0.125 (≈ 0.216 µM) | 0.5 (≈ 0.863 µM) | 1 (≈ 1.73 µM) | 1 (≈ 1.73 µM) | 0.5 (≈ 0.863 µM) | 0.5 (≈ 0.863 µM) |  | 
13 | CN(Cc1ccc(OCCCCCC(=O)NO)cc1)CC(O)(Cn1cncn1)c1ccc(F)cc1F (racemic) | 1 (≈ 1.99 µM) | 2 (≈ 3.97 µM) | 1 (≈ 1.99 µM) | 4 (≈ 7.94 µM) | 8 (≈ 15.9 µM) | 1 (≈ 1.99 µM) |  | 
14 | CN(Cc1ccc(-n2cnn(CCOc3ccc(CC(=O)NO)cc3)c2=O)cc1)CC(O)(Cn1cncn1)c1ccc(F)cc1F (racemic) | 2 (≈ 3.15 µM) | 4 (≈ 6.3 µM) | 4 (≈ 6.3 µM) | 32 (≈ 50.4 µM) | 8 (≈ 12.6 µM) | 4 (≈ 6.3 µM) |  | 
15 | CN(Cc1ccc(OCCCCCCC(=O)NO)cc1)CC(O)(Cn1cncn1)c1ccc(F)cc1F (racemic) | 1 (≈ 1.93 µM) | 1 (≈ 1.93 µM) | 1 (≈ 1.93 µM) | 1 (≈ 1.93 µM) | 2 (≈ 3.86 µM) | 1 (≈ 1.93 µM) |  | 
16 | CN(Cc1ccc(OCCCOc2ccc(CCC(=O)NO)cc2)cc1)CC(O)(Cn1cncn1)c1ccc(F)cc1F (racemic) | 1 (≈ 1.68 µM) | 2 (≈ 3.36 µM) | 2 (≈ 3.36 µM) | 4 (≈ 6.72 µM) | 4 (≈ 6.72 µM) | 1 (≈ 1.68 µM) |  | 
17 | CN(Cc1ccc(CCCC(=O)Nc2ccc(C(=O)NO)cc2)cc1)CC(O)(Cn1cncn1)c1ccc(F)cc1F (racemic) | 4 (≈ 6.91 µM) | 16 (≈ 27.7 µM) | 8 (≈ 13.8 µM) | 32 (≈ 55.3 µM) | 8 (≈ 13.8 µM) | 8 (≈ 13.8 µM) |  | 
18 | CN(Cc1ccc(-n2cnn(CCCCCCC(=O)NO)c2=O)cc1)CC(O)(Cn1cncn1)c1ccc(F)cc1F (racemic) | 64 (≈ 109 µM) | 16 (≈ 27.4 µM) | 32 (≈ 54.7 µM) | 64 (≈ 109 µM) | 64 (≈ 109 µM) | 8 (≈ 13.7 µM) |  | 
19 | CN(Cc1cccc(OCCCOc2ccc(CC(=O)NO)cc2)c1)CC(O)(Cn1cncn1)c1ccc(F)cc1F (racemic) | 2 (≈ 3.44 µM) | 4 (≈ 6.88 µM) | 2 (≈ 3.44 µM) | 2 (≈ 3.44 µM) | 2 (≈ 3.44 µM) | 1 (≈ 1.72 µM) |  | 
20 | CN(Cc1ccc(-n2cnn(CCCC(=O)NO)c2=O)cc1)CC(O)(Cn1cncn1)c1ccc(F)cc1F (racemic) | 8 (≈ 14.7 µM) | 64 (≈ 118 µM) | 32 (≈ 59 µM) | 8 (≈ 14.7 µM) | 8 (≈ 14.7 µM) | 2 (≈ 3.69 µM) |  | 
21 | CN(Cc1ccc(OCCCCC(=O)NO)cc1)CC(O)(Cn1cncn1)c1ccc(F)cc1F (racemic) | 2 (≈ 4.09 µM) | 2 (≈ 4.09 µM) | 2 (≈ 4.09 µM) | 8 (≈ 16.3 µM) | 8 (≈ 16.3 µM) | 2 (≈ 4.09 µM) |  | 
22 | CN(Cc1ccc(CCCOc2ccc(CC(=O)NO)cc2)cc1)CC(O)(Cn1cncn1)c1ccc(F)cc1F (racemic) | 0.125 (≈ 0.221 µM) | 0.5 (≈ 0.884 µM) | 0.25 (≈ 0.442 µM) | 0.5 (≈ 0.884 µM) | 2 (≈ 3.54 µM) | 0.5 (≈ 0.884 µM) |  | 
23 | O=C(Cc1ccc(OCCCc2ncn(CC(O)(Cn3cncn3)c3ccc(F)cc3F)n2)cc1)NO (racemic) | 32 (≈ 62.3 µM) | 32 (≈ 62.3 µM) | 8 (≈ 15.6 µM) | > 64 | 64 (≈ 125 µM) | 32 (≈ 62.3 µM) |  | 
24 | CN(Cc1ccc(OCCCOc2ccc(C(=O)NO)cc2)cc1)CC(O)(Cn1cncn1)c1ccc(F)cc1F (racemic) | 0.125 (≈ 0.22 µM) | 0.5 (≈ 0.881 µM) | 1 (≈ 1.76 µM) | 1 (≈ 1.76 µM) | 0.25 (≈ 0.44 µM) | 0.5 (≈ 0.881 µM) |  | 
25 | O=C(NO)c1ccc(OCCCCc2ncnn2CC(O)(Cn2cncn2)c2ccc(F)cc2F)cc1 (racemic) | 32 (≈ 62.3 µM) | 32 (≈ 62.3 µM) | > 64 | > 64 | > 64 | 64 (≈ 125 µM) |  | 
26 | O=C(NO)c1ccc(OCCCc2ncn(CC(O)(Cn3cncn3)c3ccc(F)cc3F)n2)cc1 (racemic) | 8 (≈ 16 µM) | 64 (≈ 128 µM) | 8 (≈ 16 µM) | 32 (≈ 64.1 µM) | 64 (≈ 128 µM) | 64 (≈ 128 µM) |  | 
27 | O=C(Cc1ccc(OCCCc2ncnn2CC(O)(Cn2cncn2)c2ccc(F)cc2F)cc1)NO (racemic) | 8 (≈ 15.6 µM) | 32 (≈ 62.3 µM) | 16 (≈ 31.2 µM) | > 64 | > 64 | 64 (≈ 125 µM) |  | 
28 | O=C(CCCCCCC(=O)Nc1ccccc1)NO [VORINOSTAT] |  |  |  |  |  |  | >64 | >64
